Species: Homo sapiens
Experiment: Hepatic clearance in human
Conditions: in vivo
`N=C(N)NC(=O)Cc1c(Cl)cccc1Cl` [GUANFACINE] showed a CL of 2.9 mL/min/kg. `CNS(=O)(=O)CCc1ccc2[nH]cc(C3CCN(C)CC3)c2c1` gave a CL of 3.5 mL/min/kg. `CN1C(=O)C(O)N=C(c2ccccc2Cl)c2cc(Cl)ccc21` (stereo not given) [LORMETAZEPAM] was tested, and the CL was 4 mL/min/kg. Compound `CC(C)NCC(O)COc1ccc(COCCOC(C)C)cc1` (stereo not given) [BISOPROLOL] has a CL of 1.4 mL/min/kg. For `COCCCOc1ccnc(C[S+]([O-])c2nc3ccccc3[nH]2)c1C` (stereo not given) [RABEPRAZOLE], the CL was 4 mL/min/kg. Compound `O=C(O)[C@H]1/C(=C/CO)O[C@@H]2CC(=O)N21` [CLAVULANIC ACID] has a CL of 1.8 mL/min/kg. Work on `CN1C2CCCC1CC(NC(=O)c1nn(C)c3ccccc13)C2` (stereo not given) [GRANISETRON] yielded a CL of 8.1 mL/min/kg. In the case of `CCC(C)n1ncn(-c2ccc(N3CCN(c4ccc(OCC5COC(Cn6cncn6)(c6ccc(Cl)cc6Cl)O5)cc4)CC3)cc2)c1=O` (stereo not given) [ITRACONAZOLE], the CL is reported as 5.1 mL/min/kg. For `CCC(CC)O[C@@H]1C=C(C(=O)O)C[C@H](N)[C@H]1NC(C)=O` [OSELTAMIVIR CARBOXYLATE], the CL was 0.3 mL/min/kg. Work on `CC1(C)S[C@@H]2[C@H](NC(=O)[C@H](N)c3ccccc3)C(=O)N2[C@H]1C(=O)O` [AMPICILLIN] yielded a CL of 1.6 mL/min/kg. For `COc1ccccc1OCCNCC(O)COc1cccc2[nH]c3ccccc3c12` (stereo not given) [CARVEDILOL], the CL was 7.7 mL/min/kg. `CCNCC(O)c1cccc(O)c1` (stereo not given) [ETILEFRINE] showed a CL of 10 mL/min/kg. In the case of `CCCCc1ncc(/C=C(\Cc2cccs2)C(=O)O)n1Cc1ccc(C(=O)O)cc1` [EPROSARTAN], the CL is reported as 1.2 mL/min/kg. `N[C@@H](CC(=O)N1CCn2c(nnc2C(F)(F)F)C1)Cc1cc(F)c(F)cc1F` [SITAGLIPTIN] was tested, and the CL was 1.3 mL/min/kg. With `Cc1ccc(O)c([C@H](CCN(C(C)C)C(C)C)c2ccccc2)c1` [TOLTERODINE] the CL was 8.4 mL/min/kg. For `CN[C@@H]1CCc2[nH]c3ccc(C(N)=O)cc3c2C1` [FROVATRIPTAN], the CL was 1.5 mL/min/kg. Compound `C=CCc1ccccc1OCC(O)CNC(C)C` (stereo not given) [ALPRENOLOL] has a CL of 14.4 mL/min/kg. For `CC[C@H](C)C(=O)O[C@H]1C[C@H](O)C=C2C=C[C@H](C)[C@H](CC[C@@H](O)C[C@@H](O)CC(=O)O)[C@H]21` [PRAVASTATIN], the CL was 7.7 mL/min/kg. For `COCCOC(=O)C1=C(C)NC(C)=C(C(=O)OC(C)C)C1c1cccc([N+](=O)[O-])c1` (stereo not given) [NIMODIPINE], the CL was 15 mL/min/kg. `CCN(CC)CCCC(C)Nc1ccnc2cc(Cl)ccc12` (stereo not given) [CHLOROQUINE] was tested, and the CL was 1.8 mL/min/kg. For `C=CC[C@@H]1/C=C(\C)C[C@H](C)C[C@H](OC)[C@H]2O[C@@](O)(C(=O)C(=O)N3CCCC[C@H]3C(=O)O[C@H](/C(C)=C/[C@@H]3CC[C@@H](O)[C@H](OC)C3)[C@H](C)[C@@H](O)CC1=O)[C@H](C)C[C@@H]2OC` [TACROLIMUS ANHYDROUS], the CL was 0.7 mL/min/kg. For `C[C@](N)(Cc1ccc(O)c(O)c1)C(=O)O` [METHYLDOPA], the CL was 1.4 mL/min/kg. In the case of `CC(C)[C@H]1CC[C@H](C(=O)N[C@H](Cc2ccccc2)C(=O)O)CC1` [NATEGLINIDE], the CL is reported as 1.7 mL/min/kg. `CN(CCOc1ccc(CC2SC(=O)NC2=O)cc1)c1ccccn1` (stereo not given) [ROSIGLITAZONE] showed a CL of 0.7 mL/min/kg. `Nc1ncnc2c1ncn2CCOCP(=O)(O)O` [ADEFOVIR] gave a CL of 0.4 mL/min/kg. `N[C@@H]1CN(c2c(F)cc3c(=O)c(C(=O)O)cn([C@@H]4C[C@@H]4F)c3c2Cl)CC12CC2` [SITAFLOXACIN ANHYDROUS] was tested, and the CL was 0.9 mL/min/kg. `Cc1cccc(C)c1NC(=O)C(C)N` (stereo not given) [TOCAINIDE] showed a CL of 1.4 mL/min/kg. `CC1COc2c(N3CCN(C)CC3)c(F)cc3c(=O)c(C(=O)O)cn1c23` (stereo not given) [OFLOXACIN] was tested, and the CL was 0.8 mL/min/kg. Compound `C[C@H](/C=C/[C@H](C)C(C)(C)O)[C@H]1CC[C@H]2/C(=C/C=C3C[C@@H](O)C[C@H](O)C3)CCC[C@]12C` [PARICALCITOL] has a CL of 0.9 mL/min/kg. Work on `COc1ccc([C@@H]2Sc3ccccc3N(CCN(C)C)C(=O)[C@@H]2OC(C)=O)cc1` [DILTIAZEM] yielded a CL of 3.8 mL/min/kg. `CC1(C)S[C@@H]2[C@H](NC(=O)COc3ccccc3)C(=O)N2[C@H]1C(=O)O` [PENICILLIN V] was tested, and the CL was 5.1 mL/min/kg. For `COc1ccc(Cc2nccc3cc(OC)c(OC)cc23)cc1OC` [PAPAVERINE], the CL was 11 mL/min/kg. In the case of `Cc1[nH]c(=O)c(C#N)cc1-c1ccncc1` [MILRINONE], the CL is reported as 1.2 mL/min/kg. `C#CCN(C)[C@H](C)Cc1ccccc1` [SELEGILINE] gave a CL of 19.8 mL/min/kg. With `COC(=O)C1=C(C)NC(C)=C(C(=O)OCC(C)C)C1c1ccccc1[N+](=O)[O-]` (stereo not given) [NISOLDIPINE] the CL was 15 mL/min/kg. `CO[C@H]1/C=C/O[C@@]2(C)Oc3c(C)c(O)c4c(O)c(c(/C=N/N5CCN(C)CC5)c(O)c4c3C2=O)NC(=O)/C(C)=C\C=C\[C@H](C)[C@H](O)[C@@H](C)[C@@H](O)[C@@H](C)[C@H](OC(C)=O)[C@@H]1C` [RIFAMPIN] was tested, and the CL was 1.3 mL/min/kg. `C[C@]12CC[C@@H]3c4ccc(OC(=O)N(CCCl)CCCl)cc4CC[C@H]3[C@@H]1CC[C@@H]2OP(=O)(O)O` [ESTRAMUSTINE PHOSPHATE] showed a CL of 0.9 mL/min/kg. Work on `COc1nc(C)nc(Cl)c1N=C1NCCN1` [MOXONIDINE] yielded a CL of 3.5 mL/min/kg. `CC1=C(C(=O)O)N2C(=O)[C@@H](NC(=O)[C@H](N)C3=CCC=CC3)[C@H]2SC1` [CEPHRADINE] showed a CL of 0.2 mL/min/kg. Compound `CCN(CC)CCNC(=O)c1cc(Cl)c(N)cc1OC` [METOCLOPRAMIDE] has a CL of 4.6 mL/min/kg. With `CCCC1O[C@@H]2C[C@H]3[C@@H]4CCC5=CC(=O)C=C[C@]5(C)[C@H]4[C@@H](O)C[C@]3(C)[C@]2(C(=O)CO)O1` (stereo not given in full) [BUDESONIDE] the CL was 19 mL/min/kg. Compound `CC(C)NCC(O)COc1cccc2ccccc12` (stereo not given) [PROPRANOLOL] has a CL of 10.8 mL/min/kg. In the case of `CCN(CC)C(=O)/C(C#N)=C/c1cc(O)c(O)c([N+](=O)[O-])c1` [ENTACAPONE], the CL is reported as 5.3 mL/min/kg. For `CN(Cc1cnc2nc(N)nc(N)c2n1)c1ccc(C(=O)N[C@@H](CCC(=O)O)C(=O)O)cc1` [METHOTREXATE], the CL was 0.4 mL/min/kg. `CCN(CC)CCNC(=O)c1ccc(NS(C)(=O)=O)cc1` [SEMATILIDE] showed a CL of 0.2 mL/min/kg. In the case of `CCOc1ccc(/C=C2\NCCc3cc(OCC)c(OCC)cc32)cc1OCC` [DROTAVERINE], the CL is reported as 3.5 mL/min/kg. For `CC(C)(C)NC(=O)[C@H]1CC[C@H]2[C@@H]3CC=C4C=C(C(=O)O)CC[C@]4(C)[C@H]3CC[C@]12C` [EPRISTERIDE], the CL was 0.3 mL/min/kg. In the case of `CN(C)CCc1c[nH]c2ccc(C[C@H]3COC(=O)N3)cc12` [ZOLMITRIPTAN], the CL is reported as 4.5 mL/min/kg. `CN(C)C(=O)Oc1ccc[n+](C)c1` [PYRIDOSTIGMINE] gave a CL of 2.4 mL/min/kg. `NC1CCN(c2c(F)cc3c(=O)c(C(=O)O)cn(C4CC4)c3c2Cl)C1` (stereo not given) [CLINAFLOXACIN] gave a CL of 1.5 mL/min/kg. For `C[C@@H]1O[C@@H]1P(=O)(O)O` [FOSFOMYCIN], the CL was 0.02 mL/min/kg. `CC(C)(C)NCC(O)c1cc(O)cc(O)c1` (stereo not given) [TERBUTALINE] gave a CL of 1.2 mL/min/kg. `CN[C@H](CC(C)C)C(=O)N[C@H]1C(=O)N[C@@H](CC(N)=O)C(=O)N[C@H]2C(=O)N[C@H]3C(=O)N[C@H](C(=O)N[C@H](C(=O)O)c4cc(O)cc(O)c4-c4cc3ccc4O)[C@H](O)c3ccc(c(Cl)c3)Oc3cc2cc(c3O[C@@H]2O[C@H](CO)[C@@H](O)[C@H](O)[C@H]2O[C@H]2C[C@](C)(N)[C@H](O)[C@H](C)O2)Oc2ccc(cc2Cl)[C@H]1O` [VANCOMYCIN] was tested, and the CL was 0.3 mL/min/kg. `CC1=C(C(=O)O)N2C(=O)[C@@H](NC(=O)[C@H](N)c3ccc(O)cc3)[C@H]2SC1` [CEFADROXIL] was tested, and the CL was 0.2 mL/min/kg. With `O=P(O)(O)C(O)(Cc1cccnc1)P(=O)(O)O` [RISEDRONIC ACID] the CL was 0.2 mL/min/kg. `COc1c(N2CCNC(C)C2)c(F)cc2c(=O)c(C(=O)O)cn(C3CC3)c12` (stereo not given) [GATIFLOXACIN] was tested, and the CL was 0.5 mL/min/kg. With `CC(=O)Nc1ccc(OCC(O)CNC(C)C)cc1` (stereo not given) [PRACTOLOL] the CL was 0.3 mL/min/kg. Compound `CC[C@]1(O)C[C@@H]2CN(CCc3c([nH]c4ccccc34)[C@@](C(=O)OC)(c3cc4c(cc3OC)N(C)[C@H]3[C@@](O)(C(=O)OC)[C@H](OC(C)=O)[C@]5(CC)C=CCN6CC[C@]43[C@@H]65)C2)C1` [VINBLASTINE] has a CL of 0.5 mL/min/kg. With `CC(C)(C)NCC(O)COc1ccc(NC(=O)NC2CCCCC2)cc1` (stereo not given) [TALINOLOL] the CL was 2.3 mL/min/kg. Work on `Nc1ccn(C[C@@H](CO)OCP(=O)(O)O)c(=O)n1.O.O` [CIDOFOVIR] yielded a CL of 0.3 mL/min/kg. Compound `CC(=O)NC[C@H]1CN(c2ccc(N3CCOCC3)c(F)c2)C(=O)O1` [LINEZOLID] has a CL of 1.2 mL/min/kg. `Cc1ccccc1N1C(=O)c2cc(S(N)(=O)=O)c(Cl)cc2NC1C` (stereo not given) [METOLAZONE] was tested, and the CL was 0.3 mL/min/kg. In the case of `CO/N=C(\C(=O)N[C@@H]1C(=O)N2C(C(=O)O)=C(COC(N)=O)CS[C@H]12)c1ccco1` [CEFUROXIME], the CL is reported as 0.1 mL/min/kg. For `C[C@H]1O[C@@H](n2cc(F)c(=O)[nH]c2=O)[C@H](O)[C@@H]1O` [DOXIFLURIDINE], the CL was 6.7 mL/min/kg. Compound `Nc1nc2c(c(=O)[nH]1)N(C=O)C(CNc1ccc(C(=O)N[C@@H](CCC(=O)O)C(=O)O)cc1)CN2` (stereo not given in full) [LEUCOVORIN] has a CL of 4.5 mL/min/kg. In the case of `O=C1Nc2ccc(Cl)cc2C(c2ccccc2Cl)=NC1O` (stereo not given) [LORAZEPAM], the CL is reported as 1 mL/min/kg. Compound `O=c1[nH]cnc2c1ncn2[C@H]1CC[C@@H](CO)O1` [DIDANOSINE] has a CL of 4.2 mL/min/kg. `Cc1onc(-c2c(Cl)cccc2Cl)c1C(=O)N[C@@H]1C(=O)N2[C@@H]1SC(C)(C)[C@@H]2C(=O)O` [DICLOXACILLIN] showed a CL of 0.8 mL/min/kg. `c1ccc(C2(c3ccccc3)CC2C2=NCCN2)cc1` (stereo not given) [CIFENLINE] was tested, and the CL was 4.4 mL/min/kg. For `CN1CCN(C(=O)OC2c3nccnc3C(=O)N2c2ccc(Cl)cn2)CC1` (stereo not given) [ZOPICLONE], the CL was 3.2 mL/min/kg. In the case of `CC(C)(C)NC[C@H](O)COc1nsnc1N1CCOCC1` [TIMOLOL], the CL is reported as 7.1 mL/min/kg. For `N=C(N)c1ccc(CNC(=O)[C@@H]2CCN2C(=O)[C@H](NCC(=O)O)C2CCCCC2)cc1`, the CL was 0.3 mL/min/kg. For `CC1(C)S[C@@H]2[C@H](NC(=O)[C@H](N)c3ccc(O)cc3)C(=O)N2[C@H]1C(=O)O` [AMOXICILLIN], the CL was 1.4 mL/min/kg. `COc1cc(OC)c(C(=O)CCCN2CCCC2)c(OC)c1` [BUFLOMEDIL] was tested, and the CL was 4.3 mL/min/kg. `CN(C)[C@@H]1C(O)=C(C(N)=O)C(=O)[C@@]2(O)C(O)=C3C(=O)c4c(O)cccc4[C@@](C)(O)[C@H]3C[C@@H]12` [TETRACYCLINE] was tested, and the CL was 0.6 mL/min/kg.

— ChEMBL document CHEMBL1156824, “Physicochemical space for optimum oral bioavailability: contribution of human intestinal absorption and first-pass elimination” (J Med Chem, 2010)
